Laboratory results: patent US12060588B2, “Methods of editing DNA methylation” (Whitehead Institute for Biomedical Research, priority 2016, dated 2024)

System: HEK293T cells
Test: Nuclear-cytoplasmic localization of dCas9-Tet1 constructs with or without gRNA
Assay type: cell-based
Conditions: for induction index (nuclear-cytoplasmic ratio with sgRNA normalized to that without sgRNA): HEK293T cells
Source text: FIGS. 8A-8E depict a modified CRISPR system for editing 5-cytosine DNA methylation in the mammalian genome. FIG. 8A depicts design of dCas9-effector constructs with nuclear localization signal (NLS) located at different positions, and guide RNA (gRNA) or enhanced guide RNA (E-gRNA) with CMV-driven puro-T2A-Cherry cassette. Ub: human Ubiquitin C promoter. […] FIG. 8C provides comparison of the cellular localization of dCas9-NLS-Tet1 and NLS-dCas9-NLS-Tet1 in HEK293T cells with or without co-expression of a gRNA or E-gNRA targeting the same position in the MyoD locus. […] Co-expression of either gRNA or E-gRNA induced cytoplasm-to-nucleus translocation of these two proteins. Stained in green for dCas9, red for Cherry and blue for DAPI in the merged images. The red dashed lines in the first two panels indicate the cross section of the images for GFP intensity quantification. Scale bar: 10 um. FIG. 8D provides quantification of the nuclear-cytoplasmic ratio of dCas9-NLS-Tet1 and NLS-dCas9-NLS-Tet1 in HEK293T cells in the absence or presence of a gRNA, or an E-gNRA in a Box and Whiskers plot. Average dCas9 intensity of cytoplasmic and nuclear domain along a cross-sectional line as illustrated in C was used for the quantification. “+” denotes mean value of the 20 data points in each group; the boxes indicate the extreme data points (top and bottom bars), the 25-75% interval (box), and the median (central line). […] We reasoned that the combination with the highest induction index would result in the best signal-to-noise ratio for targeted DNA methylation editing.
To achieve targeted editing of DNA methylation, we fused dCas9 with enzymes in the methylation/demethylation pathway (FIG. 1A). […] Both gRNA constructs contain a puro selection cassette and a Cherry fluorescence protein cassette driven by an independent CMV promoter that allows for Fluorescence Activated Cell Sorting (FACS) of gRNA-expressing cells after lentiviral transduction (FIG. 8A). […]

dCas9-Tet1: catalytically inactive Cas9 (dCas9) fused through NLS to the Tet1 catalytic domain, SEQ ID NO: 159; lentivirally expressed with gRNAs
induction index (nuclear-cytoplasmic ratio with sgRNA normalized to that without sgRNA) (co-expression of E-gRNA targeting the MyoD locus): 3.22 folds | induction index (nuclear-cytoplasmic ratio with sgRNA normalized to that without sgRNA) (co-expression of gRNA targeting the MyoD locus): 3.17 folds | cellular localization (in the absence of sgRNAs, transfected HEK293T cells): predominantly excluded from the nuclear compartment
